Results as given in patent publication US8071612B2, “6-alkenyl and 6-phenylalkyl substituted 2-quinolinones and 2-quinoxalinones as poly(ADP-ribose) polymerase inhibitors” (Janssen Pharmaceutica, NV, priority 2004, dated 2011).

Tests used:
[1] = molecular target: T1, PARP-1 enzyme (Homo sapiens, UniProt P09874); test: In vitro filtration assay for PARP-1 inhibitory activity; format: biochemical; conditions: nicked DNA activated PARP-1, [32P]-NAD, histones; read-out: In vitro filtration assay pIC50 (converted)
T1 construct: made in house
T1 sequence (P09874 whole entry): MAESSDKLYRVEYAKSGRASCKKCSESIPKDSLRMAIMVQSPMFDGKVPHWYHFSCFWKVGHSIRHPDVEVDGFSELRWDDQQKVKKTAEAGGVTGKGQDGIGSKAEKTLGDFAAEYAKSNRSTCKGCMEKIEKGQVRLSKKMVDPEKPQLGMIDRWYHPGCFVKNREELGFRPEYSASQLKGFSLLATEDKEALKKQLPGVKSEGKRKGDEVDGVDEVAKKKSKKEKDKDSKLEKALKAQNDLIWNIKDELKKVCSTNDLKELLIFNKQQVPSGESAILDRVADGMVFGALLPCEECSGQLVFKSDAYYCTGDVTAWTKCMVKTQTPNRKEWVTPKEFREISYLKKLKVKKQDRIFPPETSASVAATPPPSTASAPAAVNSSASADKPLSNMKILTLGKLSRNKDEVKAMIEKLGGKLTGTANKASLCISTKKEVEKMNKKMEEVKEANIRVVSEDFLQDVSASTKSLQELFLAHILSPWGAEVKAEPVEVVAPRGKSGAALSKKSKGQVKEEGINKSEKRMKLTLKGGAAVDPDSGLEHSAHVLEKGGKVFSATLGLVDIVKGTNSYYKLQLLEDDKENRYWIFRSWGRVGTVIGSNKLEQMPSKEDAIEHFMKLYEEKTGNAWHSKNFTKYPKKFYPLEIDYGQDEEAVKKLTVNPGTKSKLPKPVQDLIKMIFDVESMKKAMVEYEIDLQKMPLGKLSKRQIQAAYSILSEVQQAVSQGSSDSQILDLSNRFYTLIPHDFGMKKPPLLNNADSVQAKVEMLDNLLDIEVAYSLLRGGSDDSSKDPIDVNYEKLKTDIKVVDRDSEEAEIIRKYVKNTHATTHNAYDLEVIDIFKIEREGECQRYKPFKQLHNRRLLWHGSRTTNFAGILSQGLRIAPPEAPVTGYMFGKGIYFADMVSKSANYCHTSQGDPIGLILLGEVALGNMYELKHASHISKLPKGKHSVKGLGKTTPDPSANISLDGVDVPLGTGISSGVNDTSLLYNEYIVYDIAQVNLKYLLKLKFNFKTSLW
Experimental: Compounds of the present invention were tested in an in vitro filtration assay assessing PARP-1 activity (triggered in the presence of nicked DNA) by means of its histone poly (ADP-ribosyl)ation activity using [^32P]-NAD as ADP-ribosyl donor. The radioactive ribosylated histones were precipitated by trichloroacetic acid (TCA) in 96-well filterplates and the incorporated [^32P] measured using a scintillation counter
A mixture of histones (stock solution: 5 mg/ml in H2O), NAD (stock solution: 100 mM in H2O), and [^32P]-NAD^+ in incubation buffer (50 mM Tris/HCl, pH 8; 0.2 mM DTT; 4 mM MgCl2) was made. A mixture of the PARP-1 enzyme (5-10 μg/ml) and nicked DNA was also made. The nicked DNA was prepared as described in the in vitro SPA for PARP-1 inhibitory activity. Seventy-five μl of the PARP-1 enzyme/DNA mixture together with 1 μl of compound in DMSO and 25 μl of histones-NAD^+/[^32P]-NAD^+ mixture was added per well of a 96-well filterplate (0.45 μm, supplier Millipore). The final concentrations in the incubation mixture were 2 μg/ml for the histones, 0.1 mM for the NAD^+, […] (0.5 μC) for the [^32P]-NAD^+ and 2 μg/ml for the nicked DNA. Plates were incubated for 15 min. at room temperature and the reaction was terminated by the addition of 10 μl ice cold 100% TCA followed by the addition of 10 μl ice-cold BSA solution (1% in H2O). The protein fraction was allowed to precipitate for 10 min. at 4° C. and plates were vacuum filtered. The plates were subsequently washed with, for each well, 1 ml of 10% ice cold TCA, 1 ml of 5% ice cold TCA and 1 ml of 5% TCA at room temperature. Finally 100 μl of scintillation solution (Microscint 40, Packard) was added to each well and the plates were transferred to a TopCountNXT™ (supplier: Packard) for scintillation counting and values were expressed as counts per minute (cpm). For each experiment, controls (containing PARP-1 enzyme and DMSO without compound), a blank incubation (containing DMSO but no PARP-1 enzyme or compound) and samples (containing PARP-1 enzyme and compound dissolved in DMSO) were run in parallel. All compounds tested were dissolved and eventually further diluted in DMSO. In first instance, compounds were tested at a concentration of 10^−5M. […] In each test, the blank value was subtracted from both the control and the sample values. The control sample represented maximal PARP-1 enzyme activity. For each sample, the amount of cpm was expressed as a percentage of the mean cpm value of the controls. When appropriate, IC50-values (concentration of the drug, needed to reduce the PARP-1 enzyme activity to 50% of the control) were computed using linear interpolation between the experimental points just above and below the 50% level. Herein the effects of test compounds are expressed as pIC50 (the negative log value of the IC50-value). As a reference compound, 4-amino-1,8-naphthalimide was included to validate the filtration assay.

[2] = molecular target: T1, PARP-1 enzyme; test: In vitro Scintillation Proximity Assay (SPA) for PARP-1 inhibitory activity; format: biochemical; conditions: nicked DNA activated PARP-1, [3H]-NAD+, biotinylated histones; read-out: In vitro SPA pIC50 (converted)
Experimental: Compounds of the present invention were tested in an in vitro assay based on SPA technology (proprietary to Amersham Pharmacia Biotech).
In principle, the assay relies upon the well established SPA technology for the detection of poly(ADP-ribosyl)ation of biotinylated target proteins, i.e histones. This ribosylation is induced using nicked DNA activated PARP-1 enzyme and [^3H]-nicotinamide adenine dinucleotide ([^3H]-NAD^+) as ADP-ribosyl donor.
As inducer of PARP-1 enzyme activity, nicked DNA was prepared. For this, 25 mg of DNA (supplier: Sigma) was dissolved in 25 ml DNAse buffer (10 mM Tris-HCl, pH 7.4; 0.5 mg/ml Bovine Serum Albumine (BSA); 5 mM MgCl2.6H2O and 1 mM KCl) to which 50 μl DNAse solution (1 mg/ml in 0.15 M NaCl) was added. After an incubation of 90 min. at 37° C., the reaction was terminated by adding 1.45 g NaCl, followed by a further incubation at 58° C. for 15 min. The reaction mixture was cooled on ice and dialysed at 4° C. for respectively 1.5 and 2 hours against 1.5 l of 0.2 M KCl, and twice against 1.5 l of 0.01 M KCl for 1.5 and 2 h respectively. The mixture was aliquoted and stored at −20° C. Histones (1 mg/ml, type II-A, supplier: Sigma) were biotinylated using the biotinylation kit of Amersham and stored aliquoted at −20° C. A stock solution of 100 mg/ml SPA poly(vinyl toluene) (PVT) beads (supplier: Amersham) was made in PBS. A stock solution of [^3]H-NAD^+ was made by adding 120 μl of [^3H]-NAD^+ (0.1 mCi/ml, supplier: NEN) to 6 ml incubation buffer (50 mM Tris/HCl, pH 8; 0.2 mM DTT; 4 mM MgCl2). A solution of 4 mM NAD^+ (supplier: Roche) was made in incubation buffer (from a 100 mM stock solution in water stored at −20° C.). The PARP-1 enzyme was produced using art known techniques, i.e. cloning and expression of the protein starting from human liver cDNA. Information concerning the used protein sequence of the PARP-1 enzyme including literature references can be found in the Swiss-Prot database under primary accession number P09874. Biotinylated histones and PVT-SPA beads were mixed and pre-incubated for 30 min. at room temperature. PARP-1 enzyme (concentration was lot dependent) was mixed with the nicked DNA and the mixture was pre-incubated for 30 min. at 4° C. Equal parts of this histones/PVT-SPA beads solution and PARP-1 enzyme/DNA solution were mixed and 75 μl of this mixture together with 1 μl of compound in DMSO and 25 μl of [^3H]-NAD^+ was added per well into a 96-well microtiterplate. The final concentrations in the incubation mixture were 2 μg/ml for the biotinylated histones, 2 mg/ml for the PVT-SPA beads, 2 μg/ml for the nicked DNA and between 5-10 μg/ml for the PARP-1 enzyme. After incubation of the mixture for 15 min. at room temperature, the reaction was terminated by adding 100 μl of 4 mM NAD^+ in incubation buffer (final concentration 2 mM) and plates were mixed.
The beads were allowed to sediment for at least 15 min. and plates transferred to a TopCountNXT™ (Packard) for scintillation counting, values were expressed as counts per minute (cpm). For each experiment, controls (containing PARP-1 enzyme and DMSO without compound), a blank incubation (containing DMSO but no PARP-1 enzyme or compound) and samples (containing PARP-1 enzyme and compound dissolved in DMSO) were run in parallel. All compounds tested were dissolved and eventually further diluted in DMSO. In first instance, compounds were tested at a concentration of 10^−5 M or 10^−6M. […] In each test, the blank value was subtracted from both the control and the sample values. The control sample represented maximal PARP-1 enzyme activity. For each sample, the amount of cpm was expressed as a percentage of the mean cpm value of the controls. When appropriate, IC50-values (concentration of the drug, needed to reduce the PARP-1 enzyme activity to 50% of the control) were computed using linear interpolation between the experimental points just above and below the 50% level. […]

## Cc1cc2cc(C(NC(=O)NCCCN3CCCCC3)c3ccccc3)ccc2[nH]c1=O (stereo not shown) [Compound 7]
[1]
  IC50: 7330 nM
[2]
  IC50: 1430 nM

## Cc1cc2cc(C(c3ccccc3)c3cncn3C)ccc2[nH]c1=O (stereo not shown) [Compound 10]
[1]
  IC50: 2390 nM
[2]
  IC50: 711 nM

## CCc1cc2cc(C(c3ccccc3)N3CCC(NCCOC)CC3)ccc2[nH]c1=O (stereo not shown) [Compound 13]
[1]
  IC50: 2110 nM
[2]
  IC50: 220 nM

## Cc1cc2cc(C(NCCCc3cccs3)c3ccccc3)ccc2[nH]c1=O (stereo not shown) [Compound 23]
[1]
  IC50: 3270 nM
[2]
  IC50: 1410 nM

## Cc1cc2cc(C(NCCCn3cccc3)c3ccccc3)ccc2[nH]c1=O (stereo not shown) [Compound 24]
[1]
  IC50: 7590 nM
[2]
  IC50: 2720 nM

## CC(=O)NCCNC(c1ccccc1)c1ccc2[nH]c(=O)c(C)cc2c1 (stereo not shown) [Compound 25]
[1]
  IC50: 3900 nM
[2]
  IC50: 498 nM

## CCc1cc2cc(C(NCCCN3CCCCC3)c3ccccc3)ccc2[nH]c1=O (stereo not shown) [Compound 26]
[1]
  IC50: 918 nM
[2]
  IC50: 119 nM

## Cc1cc2cc(C(NCCC(=O)c3ccccc3)c3ccccc3)ccc2[nH]c1=O (stereo not shown) [Compound 27]
[1]
  IC50: 2330 nM
[2]
  IC50: 925 nM

## CCc1cc2cc(C(OCCN(C)C)c3ccccc3)ccc2[nH]c1=O (stereo not shown) [Compound 28]
[1]
  IC50: 773 nM
[2]
  IC50: 226 nM

## Cc1cc2cc(C(NCCO)c3ccccc3)ccc2[nH]c1=O (stereo not shown) [Compound 29]
[1]
  IC50: 4780 nM
[2]
  IC50: 796 nM

## CCc1nc2cc(C(c3ccccc3)n3cncn3)ccc2[nH]c1=O (stereo not shown) [Compound 30]
[1]
  IC50: 1800 nM
[2]
  IC50: 362 nM

## CCc1cc2cc(C(c3cccc(C(F)(F)F)c3)N3CCC(=O)CC3)ccc2[nH]c1=O (stereo not shown) [Compound 37]
[1]
  IC50: 1170 nM
[2]
  IC50: 302 nM

## CCc1cc2cc(C(c3ccc(Cl)cc3)N3CCC(=O)CC3)ccc2[nH]c1=O (stereo not shown) [Compound 38]
[1]
  IC50: 2650 nM
[2]
  IC50: 316 nM

## CCc1cc2cc(C(c3ccccc3)N3CCN(C)CC3)ccc2[nH]c1=O (stereo not shown) [Compound 39]
[1]
  IC50: 10000 nM
[2]
  IC50: 596 nM

## CCc1cc2cc(C(c3cccc(C(F)(F)F)c3)n3cnnc3)ccc2[nH]c1=O (stereo not shown) [Compound 72]
[1]
  IC50: 2100 nM
[2]
  IC50: 211 nM

## CCc1cc2cc(C(c3cccc(Cl)c3)N3CCC(=O)CC3)ccc2[nH]c1=O (stereo not shown) [Compound 77]
[1]
  IC50: 1740 nM
[2]
  IC50: 252 nM

## CCc1cc2cc(C(c3cccc(C(F)(F)F)c3)n3cncn3)ccc2[nH]c1=O (stereo not shown) [Compound 78]
[1]
  IC50: 2370 nM
[2]
  IC50: 197 nM

## CCc1cc2cc(C(c3cccc(C(F)(F)F)c3)N3CCN(C)CC3)ccc2[nH]c1=O (stereo not shown) [Compound 80]
[1]
  IC50: 3910 nM
[2]
  IC50: 692 nM

## CCc1cc2cc(C(c3ccccc3)N3CCC(=O)CC3)ccc2[nH]c1=O (stereo not shown) [Compound 81]
[1]
  IC50: 3970 nM
[2]
  IC50: 305 nM

## Cc1cc2cc(C(C)(C#N)c3ccccc3)ccc2[nH]c1=O (stereo not shown) [Compound 85]
[1]
  IC50: 1190 nM
[2]
  IC50: 189 nM

## CCc1cc2cc(C(c3ccc(Cl)cc3)N3CCC(NCCOC)CC3)ccc2[nH]c1=O (stereo not shown) [Compound 86]
[1]
  IC50: 2240 nM
[2]
  IC50: 292 nM

## CCc1cc2cc(C(c3cccc(C(F)(F)F)c3)N3CCC(NCCOC)CC3)ccc2[nH]c1=O (stereo not shown) [Compound 87]
[1]
  IC50: 4950 nM
[2]
  IC50: 589 nM

## Cc1cc2cc(C(c3ccccc3)C3CCCN(C)C3)ccc2[nH]c1=O (stereo not shown) [Compound 88]
[1]
  IC50: 4070 nM
[2]
  IC50: 264 nM

## Cc1cc2cc(C(CCN3CCCCC3)c3ccccc3)ccc2[nH]c1=O (stereo not shown) [Compound 89]
[1]
  IC50: 2680 nM
[2]
  IC50: 451 nM

## CCc1cc2cc(C(CCN(C)C)c3cccc(C(F)(F)F)c3)ccc2[nH]c1=O (stereo not shown) [Compound 91]
[1]
  IC50: 828 nM
[2]
  IC50: 187 nM

## CCc1cc2cc(C(CCN(C)C)c3ccccc3)ccc2[nH]c1=O (stereo not shown) [Compound 92]
[1]
  IC50: 1180 nM
[2]
  IC50: 105 nM

## Cc1cc2cc(C(c3ccccc3)N3CCCCC3)ccc2[nH]c1=O (stereo not shown) [Compound 93]
[1]
  IC50: 2150 nM
[2]
  IC50: 508 nM

## Cc1cc2cc(C(c3cccc(Cl)c3)n3ccnc3)ccc2[nH]c1=O (stereo not shown) [Compound 94]
[1]
  IC50: 3560 nM
[2]
  IC50: 665 nM

## Cc1cc2cc(C(c3ccc(Cl)cc3)n3ccnc3)ccc2[nH]c1=O (stereo not shown) [Compound 95]
[1]
  IC50: 6350 nM
[2]
  IC50: 818 nM

## CCc1cc2cc(C(NC=O)c3ccccc3)ccc2[nH]c1=O (stereo not shown) [Compound 96]
[1]
  IC50: 352 nM
[2]
  IC50: 69.8 nM

## CCc1cc2cc(/C(=C\CN3CCCCC3)c3ccc4c(c3)OCCO4)ccc2[nH]c1=O [Compound 130]
[2]
  IC50: 188 nM

## CCc1cc2cc(/C(=C\CN(C)C)c3ccc4c(c3)OCCO4)ccc2[nH]c1=O [Compound 136]
[2]
  IC50: 137 nM

## CCc1cc2cc(/C(=C\CN(C)C)c3ccc(Cl)cc3)ccc2[nH]c1=O [Compound 137]
[2]
  IC50: 428 nM

## CCc1cc2cc(/C(=C/CN(C)C)c3ccc4c(c3)OCCO4)ccc2[nH]c1=O [Compound 138]
[2]
  IC50: 63 nM

## CCc1cc2cc(C(=C3CCN(CCCn4c(=O)[nH]c5ccccc54)CC3)c3ccc4c(c3)OCCO4)ccc2[nH]c1=O [Compound 141]
[2]
  IC50: 121 nM

## CCc1cc2cc(C(=C3CCN(C/C=C/c4ccccc4)CC3)c3ccc4c(c3)OCCO4)ccc2[nH]c1=O [Compound 142]
[2]
  IC50: 322 nM

## CCc1cc2cc(C(=C3CCN(CC(O)COc4ccc(F)cc4)CC3)c3ccc4c(c3)OCCO4)ccc2[nH]c1=O (stereo not shown) [Compound 143]
[2]
  IC50: 157 nM
